From patent US20090054507A1, “CONTROL OF MALIGNANT CELLS BY KINASE INHIBITION” (CLEVELAND STATE UNIVERSITY, priority 2006, published 2009) come the findings set out here.

The test system of one assay is MCF-7 cells. In words: Anchorage independence in soft agar, MCF-7. It counts as cell-based, human. The conditions noted are these: DMAT 10 μM, one week.
Assay [1] concerns platelets from MEG-01 cells. The assay can be described thus: Function assays of platelets released from treated MEG-01 cells. It counts as cell-based, human. How it is done:
Platelets isolation from culture. Platelets were separated from the megakaryocytic cells, by differential centrifugation and analyzed separately. Suspension cells were centrifuged first at 100 g-150 g for 15 minutes, and then the platelets rich supernatant was kept and centrifuged again at 800 g for 15 minutes. For impeding artefactual aggregation of platelets in the control, EDTA and RGD or RGDS were added in the cell suspension from the beginning of the centrifugations, and with each centrifugation step. 1 mg/ml RGD or RGDS and 10 mM EDTA final concentrations, were used for negative control (inactivated) or resting platelets. Platelets were activated with different agonists: 100 nM PMA, 1 μg/ml TRAP and 0.5 U/ml human a-thrombin. For most of assays TRAP 1 μg/ml was used. For scanning electron microscopy experiment (formation of the fibrin clot) human a-thrombin was used. For both sample sets, activated (with TRAP) and inactivated (EDTA, RGD), platelets collected from MEG-01 cultures incubated with 10 μM DMAT for 4 days were utilized.
PAC-I-FITC binding due to platelet activation flow cytometric assay. Monoclonal antibody PAC-1 recognizes an epitope on the glycoprotein αIIbβ3 of activated platelets. […]
Fibrinogen-Alexa Fluor 488 binding to platelets flow cytometric assay. […] Final concentration of fibrinogen conjugated to Alexa Fluor 488 was determined spectrophotometrically. […]

The subject of a further assay is MEG-01 xenografts. In words: In vivo therapy of MEG-01 xenografts, tumor volume. Further details: species or system mice. The note with it: for tumor volume: subcutaneous in the neck, 2 weeks. The source says: Creation of MEG-01 xenografts. Immunodeficient male athymic nude nu/nu mice were used, provided and housed by Dr. Lindner, D J from Taussig Cancer Center, Cleveland Clinic and Case Western Reserve University. The mice were checked every day. The mice were housed in filtered air flow cabinets with autoclaved bedding at a density of 5 mice/cage. They were fed autoclaved Purina Lab Rodent Chow® 5010 and HCl-acidified distilled water ad libitum and were placed in rooms with controlled temperature, humidity and 12-hr light-dark cycles. Procedures involving animals and their care were conducted in conformity with the institutional guidelines that are in compliance with national and international laws and policies (EEC Council Directive 86/609, OJL 358, Dec. 1, 1987, and the National Institutes of Health Guide for the Care and Use of Laboratory, Animals, NIH Publication 85-23, 1985).
For engraftment, cells in cell culture media were injected. MEG-01 myeloid blast crisis cells (10×10^6 cells/100 μl in cell culture media (RPMI 1640 1×, 10% FBS) were injected subcutaneously into the lower flanks of mice (left and right). Cells were counted with a hemacytometer using Trypan blue (only live cells were counted).
After 10 days the mice developed tumors large enough to start the treatment. Tumors were visible after 6-7 days from inoculation. The average weight of the mice typically ranged 30-35 g. Treatment with DMAT was started when tumors were at least 100-200 mm^3 volumes (prolate spheroid). Tumor volumes were calculated as prolate spheroid (4/3*π*(a)^2*(b), where “2a” is the minor axis and “2b” is the major axis of the prolate spheroid. “2a” and “2b” were measured with a caliper (mm). Animals were treated with DMAT for approximately 2 weeks. When tumor volumes reached a size unacceptable with the IACUC protocols, animals were sacrificed in a CO2 euthanasia chamber. Tumors were collected for further histological analysis. […]
In vivo therapy with DMAT of MEG-01 xenografts. […] Tumor diameters were measured using a caliper and tumor volume was calculated using the prolate-spheroid formula. […]

Consider `CN(C)c1nc2c(Br)c(Br)c(Br)c(Br)c2[nH]1` [DMAT, 2-dimethylamino-4,5,6,7-tetrabromo-1H-benzimidazole], for which the “colonies in soft agar” value with MCF-7 cells was “much smaller and fewer colonies”. Further, in assay [1] (DMAT 10 μM at 72 hours, human thrombin 0.5 U/ml), the “fibrin clot formation by platelets from treated MEG-01 cells” value is listed as “form a fibrin clot”. For the same molecule, the “function of platelets obtained from treated MEG-01 cells” value in assay [1] (response to human thrombin 0.5 U/ml) is “functional”. Also, the tumor volume result in the assay on MEG-01 xenografts (DMAT 2 mg (in DMSO) per animal per day) is “proliferation arrest in vivo in large tumors and tumor ablation in small tumors”; with MEG-01 xenografts (DMAT 3 mg (in DMSO) per animal per day) it was “proliferation arrest in vivo for large tumors and tumor ablation in small tumors”. Besides, the “response of xenograft tumors to treatment (summary)” value in the assay on MEG-01 xenografts (mouse, in vivo) is on record as “tumor ablation”.
